This note sets out measurements from patent US5807855A, “1-piperazino-1,2-dihydroindene derivatives” (priority 1992, dated 1998).

One experiment addresses T1, 5-HT2 receptors (Rattus norvegicus, UniProt P14842).
T1 construct: 5-HT2 receptors in membranes from rat cortex; from tissue; host or cells: membranes from rat cortex
Description: Inhibition of 3H-ketanserin binding to 5-HT2 receptors in membranes from rat cortex. To be noted: Receptor Binding, IC50, 5-HT2 3H-Ket. On the procedure:
Receptor binding studies.
5-HT2 receptors. Inhibition of ^3 H-ketanserin binding to 5-HT2 receptors in membranes from rat cortex was determined as described by Hyttel, J. Acta. Pharmacol. Toxicol.

The target of a further experiment is DA D1 receptor (Rattus norvegicus, UniProt P18901). Description: biochemical. Format: binding. To be noted: IC50, D1 3H-SCH.
DA D1 receptor, sequence (P18901 whole entry): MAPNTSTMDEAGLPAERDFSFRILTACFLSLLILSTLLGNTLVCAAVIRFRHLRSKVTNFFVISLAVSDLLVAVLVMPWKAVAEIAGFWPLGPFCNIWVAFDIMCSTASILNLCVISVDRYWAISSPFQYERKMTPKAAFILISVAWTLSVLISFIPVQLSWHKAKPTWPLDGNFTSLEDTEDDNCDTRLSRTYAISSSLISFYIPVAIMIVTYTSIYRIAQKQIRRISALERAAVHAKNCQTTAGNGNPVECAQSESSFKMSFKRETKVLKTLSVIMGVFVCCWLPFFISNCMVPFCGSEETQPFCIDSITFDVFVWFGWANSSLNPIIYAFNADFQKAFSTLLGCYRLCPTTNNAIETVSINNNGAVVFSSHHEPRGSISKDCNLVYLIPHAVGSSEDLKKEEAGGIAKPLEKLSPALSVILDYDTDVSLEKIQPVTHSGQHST
The target in a further experiment is T2, DA D2 receptors (Rattus norvegicus, UniProt P61169).
T2 construct: DA D2 receptors in rat striatal membranes; from tissue; host or cells: rat striatal membranes
T2 sequence (P61169 whole entry): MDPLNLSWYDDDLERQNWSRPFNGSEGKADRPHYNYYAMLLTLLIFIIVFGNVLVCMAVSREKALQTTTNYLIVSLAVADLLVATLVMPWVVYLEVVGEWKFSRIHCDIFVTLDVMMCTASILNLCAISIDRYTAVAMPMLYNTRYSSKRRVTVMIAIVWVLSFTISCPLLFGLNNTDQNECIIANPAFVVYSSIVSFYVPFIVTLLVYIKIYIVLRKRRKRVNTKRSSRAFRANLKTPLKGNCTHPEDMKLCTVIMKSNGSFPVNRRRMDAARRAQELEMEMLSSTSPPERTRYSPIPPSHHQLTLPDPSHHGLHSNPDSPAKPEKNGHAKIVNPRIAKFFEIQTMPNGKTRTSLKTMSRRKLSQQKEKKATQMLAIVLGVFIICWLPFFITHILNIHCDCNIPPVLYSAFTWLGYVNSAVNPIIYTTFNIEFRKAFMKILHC
Description: Inhibition of 3H-spiperone binding to DA D2 receptors in rat striatal membranes. To be noted: rat striatal membranes, 3H-spiperone; read-out: Receptor Binding; IC50, D2 3H-Spi.

Setting [1] is: rat striatal membranes, 3H-SCH 23390, read-out: Receptor Binding.

Where two headings read alike, the source gives them in different places.

T1 sequence (P14842 whole entry): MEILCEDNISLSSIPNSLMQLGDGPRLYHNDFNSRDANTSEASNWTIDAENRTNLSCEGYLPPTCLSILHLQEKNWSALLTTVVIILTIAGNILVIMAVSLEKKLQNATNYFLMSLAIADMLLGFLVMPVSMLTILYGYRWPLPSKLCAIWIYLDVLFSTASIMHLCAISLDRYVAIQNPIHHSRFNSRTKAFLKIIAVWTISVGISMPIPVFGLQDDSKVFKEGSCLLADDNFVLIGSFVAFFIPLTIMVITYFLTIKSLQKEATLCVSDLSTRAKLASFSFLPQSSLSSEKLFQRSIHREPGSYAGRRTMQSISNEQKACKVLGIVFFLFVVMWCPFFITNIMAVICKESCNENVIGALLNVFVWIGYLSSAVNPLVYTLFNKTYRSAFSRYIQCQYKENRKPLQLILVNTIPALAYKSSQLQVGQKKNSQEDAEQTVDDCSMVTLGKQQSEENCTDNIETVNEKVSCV

As for `CC1(C)CN([C@@H]2C[C@@H](c3ccc(F)cc3)c3ccc(Cl)cc32)CCN1` (racemic) [Compound 1, (±)-Trans-4-[6-chloro-3-(4-fluorophenyl)-2,3-dihydro-1H-inden-1-yl]-2,2-dimethylpiperazine], the IC50 at 5-HT2 receptors is 3.2 nM; at DA D1 receptor (setting [1]) it was 2.1 nM; at DA D2 receptors it was 7.3 nM. As to `CN1CCN([C@@H]2C[C@@H](c3ccccc3)c3ccccc32)CC1(C)C` (racemic) [Compound 3, (±)-Trans-4-[3-phenyl-2,3-dihydro-1H-inden-1-yl]-1,2,2-trimethyl-piperazine], the IC50 worked out at 21 nM at 5-HT2 receptors, 13 nM on DA D1 receptor (Receptor Binding) and 140 nM on DA D2 receptors. On to `Cc1ccc2c(c1)[C@H](N1CCNC(C)(C)C1)C[C@H]2c1ccc(F)cc1` (racemic) [Compound 4, (±)-Trans-2,2-dimethyl-4-[6-methyl-3-(4-fluorophenyl)-2,3-dihydro-1H-inden-1-yl]piperazine], for which the IC50 worked out at 1.5 nM at 5-HT2 receptors, 5.9 nM at DA D1 receptor (setting [1]) and 5.6 nM at DA D2 receptors. As for `Cc1ccc2c(c1)[C@H](N1CCN(C)C(C)(C)C1)C[C@H]2c1ccc(F)cc1` (racemic) [Compound 5, (±)-Trans-4-[6-methyl-3-(4-fluorophenyl)-2,3-dihydro-1H-inden-1-yl]-1,2,2-trimethylpiperazine], the IC50 at 5-HT2 receptors is 3.4 nM; at DA D1 receptor (Receptor Binding), 2.1 nM; on DA D2 receptors it was 4.8 nM. On to `CC1(C)CN([C@@H]2C[C@@H](c3ccc(F)cc3)c3ccc(C(F)(F)F)cc32)CCN1` (racemic) [Compound 6, (±)-Trans-2,2-dimethyl-4-[6-trifluoromethyl-3-(4-fluorophenyl)-2,3-dihydro-1H-inden-1-yl]piperazine], for which the values for the IC50 on DA D1 receptor (setting [1]) and on DA D2 receptors were 2.8 nM and 5.2 nM, respectively. Turning to `CN1CCN([C@@H]2C[C@@H](c3ccc(F)cc3)c3ccc(C(F)(F)F)cc32)CC1(C)C` (racemic) [Compound 7, (±)-Trans-4-[6-trifluoromethyl-3-(4-fluorophenyl)-2,3-dihydro-1H-inden-1-yl]-1,2,2-trimethylpiperazine], the IC50 was found to be 4.5 nM at 5-HT2 receptors, 1.5 nM at DA D1 receptor (Receptor Binding) and 5.7 nM on DA D2 receptors. `CN1CCN([C@@H]2C[C@@H](c3ccc(F)cc3)c3c(Cl)cccc32)CC1(C)C` (racemic) [Compound 15, (±)-Trans-4-[4-chloro-3-(4-fluorophenyl)-2,3-dihydro-1H-inden-1-yl]-1,2,2-trimethylpiperazine]: the figures for the IC50 on 5-HT2 receptors and on DA D1 receptor (setting [1]) were 29 nM and 45 nM, respectively. Consider `CC1CN([C@@H]2C[C@@H](c3ccc(F)cc3)c3ccc(Cl)cc32)CCN1C` (mixture of isomers) [Compound 18, (±)-Trans-4-[6-chloro-3-(4-fluorophenyl)-2,3-dihydro-1H-inden-1-yl]-1,2-dimethylpiperazine], for which the IC50 worked out at 2.4 nM on DA D1 receptor (setting [1]) and 12 nM on DA D2 receptors. On the same counts, the results for `CCC1(CC)CN([C@@H]2C[C@@H](c3ccc(F)cc3)c3ccc(Cl)cc32)CCN1C` (racemic) [Compound 24, (±)-Trans-4-[6-chloro-3-(4-fluorophenyl)-2,3-dihydro-1H-inden-1-yl]-2,2-diethyl-1-methylpiperazine] are 8.8 nM and 38 nM.

On to `C[C@@H]1CN([C@@H]2C[C@@H](c3ccc(F)cc3)c3ccc(C(F)(F)F)cc32)C[C@H](C)N1` (racemic) [Compound 27, (±)-Trans-4-[6-trifluoromethyl-3-(4-fluorophenyl)-2,3-dihydro-1H-inden-1-yl]-cis-2,6-dimethylpiperazine], for which the IC50 on DA D1 receptor (setting [1]) stood at 50 nM; on DA D2 receptors, 33 nM. For `CN1CCN([C@@H]2C[C@@H](c3ccc(F)cc3)c3ccc(Cl)cc32)CC12CCC2` (racemic) [Compound 28, (±)-Trans-8-[6-chloro-3-(4-fluorophenyl)-2,3-dihydro-1H-inden-1-yl]-5-methyl-5,8-diazaspiro[3.5]nonane], the IC50 turned out to be 3 nM on 5-HT2 receptors and 6.3 nM at DA D2 receptors. On to `CN1CCN([C@@H]2C[C@@H](c3ccsc3)c3ccc(Cl)cc32)CC12CCCC2` (racemic) [Compound 30, (±)-Trans-9-[6-chloro-3-(3-thienyl)-2,3-dihydro-1H-inden-1-yl]-6-methyl-6,9-diazaspiro[4.5]decane], for which the IC50 at DA D1 receptor (setting [1]) was 1.8 nM; at DA D2 receptors it was 5 nM. In the case of `CN1CCN([C@@H]2C[C@@H](c3ccc(F)cc3)c3ccc(Cl)cc32)CC12CCCCC2` (racemic) [Compound 32, (±)-Trans-4-[6-chloro-3-(4-fluorophenyl)-2,3-dihydro-1H-inden-1-yl]-1-methyl-1,4-diazaspiro[5.5]undecan], the IC50 at DA D1 receptor (setting [1]) came to 6 nM; on DA D2 receptors, 24 nM. Regarding `Fc1ccc([C@@H]2C[C@@H](N3CCN4CCCCC4C3)c3cc(Cl)ccc32)cc1` (mixture of isomers) [Compound 34, (±)-Trans-2-[6-chloro-3-(4-fluorophenyl)-2,3-dihydro-1H-inden-1-yl]-octahydropyrido[1,2-a]pyrazine], the results for the IC50 at DA D1 receptor (setting [1]) and on DA D2 receptors were 2.1 nM and 11 nM, respectively. For the compound `CC(C)N1CCN([C@@H]2C[C@@H](c3ccc(F)cc3)c3ccc(Cl)cc32)CC1C` (mixture of isomers) [Compound 41, (±)-Trans-4-[6-chloro-3-(4-fluorophenyl)-2,3-dihydro-1H-inden-1-yl]-2-methyl-1-(2-propyl)piperazine], the IC50 at DA D1 receptor (setting [1]) worked out at 1.6 nM; at DA D2 receptors, 17 nM. Take `CC(C)N1CCN([C@@H]2C[C@@H](c3ccc(F)cc3)c3ccc(Cl)cc32)CC12CCCC2` (racemic) [Compound 42, (±)-Trans-9-[6-chloro-3-(4-fluorophenyl)-2,3-dihydro-1H-inden-1-yl]-6-(2-propyl)-6,9-diazaspiro[4.5]decane]: the IC50 on DA D1 receptor (setting [1]) stood at 1.3 nM; at DA D2 receptors, 8.8 nM.

With `CC1(C)CN([C@@H]2C[C@@H](c3ccc(F)cc3)c3ccc(Cl)cc32)CCN1CCO` (racemic) [Compound 43, (±)-Trans-4-[6-chloro-3-(4-fluorophenyl)-2,3-dihydro-1H-inden-1-yl]-2,2-dimethyl-1-piperazineethanol], the results for the IC50 at DA D1 receptor (setting [1]) and at DA D2 receptors were 1 nM and 3 nM, respectively. For `CC1(C)CN([C@@H]2C[C@@H](c3ccsc3)c3ccc(Cl)cc32)CCN1CCO` (racemic) [Compound 45, (±)-Trans-4-[6-chloro-3-(3-thienyl)-2,3-dihydro-1H-inden-1-yl]-2,2-dimethyl-1-piperazineethanol], the IC50 on DA D1 receptor (setting [1]) was found to be 0.82 nM; at DA D2 receptors, 2.8 nM. As to `CC(C)C1CN([C@@H]2C[C@@H](c3ccc(F)cc3)c3ccc(Cl)cc32)CCN1C` (relative stereo) [Compound 21, Trans-4-[6-chloro-3-(4-fluorophenyl)-2,3-dihydro-1H-inden-1-yl]-1-methyl-2-(2-propyl)piperazine], the IC50 at DA D1 receptor (setting [1]) was 3.2 nM; at DA D2 receptors it was 36 nM. On to `CC(C)C1CN([C@@H]2C[C@@H](c3ccc(F)cc3)c3ccc(Cl)cc32)CCN1C` (relative stereo) [Compound 22, Trans-4-[6-chloro-3-(4-fluorophenyl)-2,3-dihydro-1H-inden-1-yl]-1-methyl-2-(2-propyl)piperazine], for which the IC50 at DA D1 receptor (setting [1]) worked out at 43 nM; at DA D2 receptors, 400 nM.

On to `CC1CN([C@@H]2C[C@@H](c3ccc(F)cc3)c3ccc(Cl)cc32)C(C)CN1C` (relative stereo) [Compound 25, (±)-Trans-4-[6-chloro-3-(4-fluorophenyl)-2,3-dihydro-1H-inden-1-yl]-(1-trans-2,5-trimethyl)piperazine], for which the IC50 at 5-HT2 receptors was found to be 3.4 nM. On 5-HT2 receptors, `C[C@@H]1CN([C@@H]2C[C@@H](c3ccc(F)cc3)c3ccc(Cl)cc32)C[C@H](C)N1C` (relative stereo) [Compound 26, (±)-Trans-4-[6-chloro-3-(4-fluorophenyl)-2,3-dihydro-1H-inden-1-yl]-(1-cis-2,6-trimethyl)piperazine] registered an IC50 of 3.3 nM. The compound `CN1CCN([C@@H]2C[C@@H](c3ccc(F)cc3)c3ccc(Cl)cc32)CC12CCCC2` (relative stereo) [Compound 29] registered an IC50 on 5-HT2 receptors of 5.2 nM. Regarding `CC(C)N1CCN([C@@H]2C[C@@H](c3ccc(F)cc3)c3ccc(Cl)cc32)CC1(C)C` (relative stereo) [Compound 40], the IC50 at 5-HT2 receptors is 4.1 nM.

Regarding `OCCN1CCN([C@@H]2C[C@@H](c3ccc(F)cc3)c3ccc(Cl)cc32)CC12CCCC2` (relative stereo) [Compound 44], the IC50 at 5-HT2 receptors was determined as 6 nM. `CN1CCN([C@@H]2C[C@@H](c3ccc(F)cc3)c3ccc(Cl)cc32)CC12CCCC2` (single isomer, unassigned) [+29, (+)-Trans-9-[6-chloro-3-(4-fluorophenyl)-2,3-dihydro-1H-inden-1-yl]-6-methyl-6,9-diazaspiro[4.5]decane] returned an IC50 on 5-HT2 receptors of 13 nM. For the compound `CN1CCN([C@@H]2C[C@@H](c3ccc(F)cc3)c3ccc(Cl)cc32)CC12CCCC2` (single isomer, unassigned) [Compound -29], on 5-HT2 receptors, the IC50 stood at 4 nM. Turning to `CC(C)N1CCN([C@@H]2C[C@@H](c3ccc(F)cc3)c3ccc(Cl)cc32)CC1(C)C` (single isomer, unassigned) [Compound -40], the IC50 on 5-HT2 receptors was determined as 2.5 nM. Regarding `OCCN1CCN([C@@H]2C[C@@H](c3ccc(F)cc3)c3ccc(Cl)cc32)CC12CCCC2` (single isomer, unassigned) [Compound -44], on 5-HT2 receptors, the IC50 was determined as 2.5 nM. With `OC1CCN2CCN(C3CC(c4ccc(F)cc4)c4ccc(F)cc43)CC2C1` (centres unmarked) [Compound 35, 2-[6-fluoro-3-(4-fluorophenyl)-2,3-dihydro-1H-inden-1-yl]-octahydropyrido[1,2-a]-pyrazine-8-ol], the IC50 on DA D1 receptor (setting [1]) amounted to 30 nM; at DA D2 receptors, 1100 nM.
